Reference: patent US20140066385A1, “METHOD FOR TREATING CANCER BY COMBINED USE OF DRUGS” (Astellas Pharma Inc., priority 2011, published 2014)

Legend:
[1] = tested on: human non-small cell lung cancer (Calu-6); assay: Example 2: FK330 with multicycle paclitaxel in Calu-6 tumor-bearing mice; format: in vivo, nude mice; settings: for tumor volume reduction ratio compared with the paclitaxel-only group: FK330 100 mg/kg bid p.o. continuously + paclitaxel 10 mg/kg/day i.v. multicycle, P<0.01
Description: The dose of FK330 is expressed in weight including the hydrate. A paclitaxel injectable preparation (paclitaxel injection liquid, “Sawai”) was purchased from Sawai Pharmaceutical Co., Ltd., and was used as paclitaxel.
FK330 was suspended (20 mg/mL) in a 0.5% aqueous methyl cellulose solution (0.5% MC). Paclitaxel was prepared with physiological saline for injection (Otsuka Pharmaceutical Group) to a concentration of 1 mg/mL at the time of use.
Human lung cancer-derived Calu 6 (HTB-56) was obtained from American Type Culture Collection (VA, USA). The cells were cultured under the conditions of 37° C. and 5% CO2 by using RPMI1640 medium containing 10% heat-inactivated fetal bovine serum (FBS). The cells were harvested with trypsin and were suspended in PBS at 6×10^7 cells/mL, and the suspension was mixed with an equal amount of Matrigel (trade name) Basement Membrane Matrix (manufactured by Becton Dickinson Co., Bedford, Mass., USA).
(§1) Five-week old male nude mice (CAnN Cg-Foxn1nu/CrICrlj(nu/nu)) were purchased from Charles River Laboratories Japan, Inc. (Japan, Kanagawa). The animals were raised under specific pathogen-free (SPF) conditions throughout the test period by feeding standard feedstuff and drinking water. The cultured cells were subcutaneously inoculated into the dorsal region of the nude mice at a concentration of 3×10^6 cells/0.1 mL/mouse. Nude mice which had the tumor volumes (major axis×[minor axis]^2×0.52) ranging from 136.5 mm^3 to 299.0 mm^3 were assigned by using SAS to minimize the fluctuation in the tumor volume between the groups and within the group.
The first day of administration was designated as Day 1, and observation was made until Day 83. The respective groups (n=6) were treated as follows. FK330 was orally gavaged in an amount of 5 mL/kg, and paclitaxel was administered intravenously through the tail vein in an amount of 10 mL/kg. Paclitaxel was continuously administered from Day 1 to Day 7, and then was withdrawn for 23 days (1 cycle). In the administration of PTX in the second cycle and the third cycle, PTX was continuously administered for 6 days from Day 31 and from Day 60, respectively. […]
Every 2 to 4 days, the body weight and the tumor diameters, determined by using a digital caliper, were measured. The tumor volume was calculated from the calculation formula for ellipsoid volume of (major axis×[minor axis]^2×0.52).
The results are expressed as the mean value (Mean)±standard error (SEM). […] Using the actual measured values of the tumor volume at the end of the study, an unpaired statistical test (Student's t-test) of the difference between two groups was carried out between a single administration group and a combined use group. […]

[2] = tested on: human non-small cell lung cancer (Calu-6); assay: Example 4: administration timing of FK330 with paclitaxel in Calu-6 tumor-bearing mice; format: in vivo, nude mice; settings: Day 55; for tumor volume at the end of the study: mean±SEM
Description: Preparation of the test substances and conditioning of the cells were carried out in the same manner as in Example 2.
as §1, with “Cg-Foxn1nu/CrlCrlj(nu/nu))” for “Cg-Foxn1nu/CrICrlj(nu/nu))”, “142.1” for “136.5”, “359.1” for “299.0”
The first day of administration was designated as Day 0, and observation was made until Day 55. The respective groups (n=5 or 6) were treated as follows. FK330 was orally gavaged in an amount of 5 mL/kg, and paclitaxel was administered intravenously through the tail vein in an amount of 10 mL/kg. Paclitaxel was continuously administered from Day 0 to Day 5, was subsequently withdrawn for 22 days, and then was continuously administered for 5 days from Day 28 to Day 32.
Paclitaxel single administration group: Paclitaxel 10 mg/kg/day (from Day 0 to Day 5, and from Day 28 to Day 32)
Concomitant administration, FK330 100 mg/kg bid (200 mg/kg/day)+paclitaxel 10 mg/kg/day (from Day 0 to Day 5, and from Day 28 to Day 32)
Sequential administration, FK330 100 mg/kg bid (200 mg/kg/day)+paclitaxel 10 mg/kg/day (from Day 0 to Day 5, and from Day 28 to Day 32)
Continuous administration, FK330 100 mg/kg bid (200 mg/kg/day)+paclitaxel 10 mg/kg/day (from Day 0 to Day 5, and from Day 28 to Day 32)
FK330 was orally gavaged (5 mL/kg) twice a day at an interval of 6 to 8 hours. In the Concomitant administration, FK330 was administered on the days of administration of paclitaxel (from Day 0 to Day 5, and from Day 28 to Day 32); and in the […] administration, FK330 was administered on the withdrawal days after the days of administration of paclitaxel (from Day 6 to Day 27, and from Day 33 to Day 55), while the continuous administration was carried out for all days from the day of experiment initiation to the day of experiment completion. Paclitaxel was administered by intravenous bolus injection (10 mL/kg) through the tail vein 2 to 4 hours after the administration of FK330.
Every 3 to 4 days, the body weight and the tumor diameters, determined by using a digital caliper, were measured. The tumor volume was calculated from the calculation formula for ellipsoid volume of (major axis×[minor axis]^2×0.52).

Row | Compound | tumor volume reduction ratio compared with the paclitaxel-only group ([1]; Day 29) | tumor volume reduction ratio compared with the paclitaxel-only group ([1]; Day 60) | tumor volume reduction ratio compared with the paclitaxel-only group ([1]; Day 83) | tumor volume reduction ratio compared with the paclitaxel-only group ([2]; concomitant administration of FK330 100 mg/kg bid + paclitaxel) | tumor volume at the end of the study ([2]; concomitant administration of paclitaxel and FK330 100 mg/kg bid (FK330 on paclitaxel days only)) | tumor volume at the end of the study ([2]; continuous administration of FK330 100 mg/kg bid (all days) + paclitaxel) | tumor volume reduction ratio compared with the paclitaxel-only group ([2]; continuous administration of FK330 100 mg/kg bid + paclitaxel) | tumor volume at the end of the study ([2]; sequential administration of FK330 100 mg/kg bid (on paclitaxel withdrawal days) + paclitaxel) | tumor volume reduction ratio compared with the paclitaxel-only group ([2]; sequential administration of FK330 100 mg/kg bid + paclitaxel) | anti-tumor effect of paclitaxel as a result of multicycle administration ([1]; paclitaxel 10 mg/kg/day i.v. alone, three cycles, until Day 83) | tumor volume at the end of the study ([2]; paclitaxel-only group, 10 mg/kg/day i.v. Day 0-5 and Day 28-32)
1 | O=C(/C=C/c1ccc(Cl)cc1)N[C@@H](Cc1ccccn1)C(=O)NCC(=O)N1CCC(Oc2cc(C(F)(F)F)ncn2)CC1 [FK330, N^2-[(2E)-3-(4-chlorophenyl)-2-propenoyl]-N-[2-oxo-2-(4-{[6-(trifluoromethyl)pyrimidin-4-yl]oxy}piperidin-1-yl)ethyl]-3-pyridin-2-yl-L-alaninamide] | 57.6% | 86.1% | 87.6% | 54.5% | 559.8±161.8 mm^3 | 168.5±66.0 mm^3 | 86.3% | 1150.9±264.9 mm^3 | 6.4% |  | 
2 | CC(=O)O[C@H]1C(=O)[C@@]2(C)[C@H]([C@H](OC(=O)c3ccccc3)[C@]3(O)C[C@H](OC(=O)[C@H](O)[C@@H](NC(=O)c4ccccc4)c4ccccc4)C(C)=C1C3(C)C)[C@]1(OC(C)=O)CO[C@@H]1C[C@@H]2O [paclitaxel, reference compound] |  |  |  |  |  |  |  |  |  | tended to attenuate | 1229.2±289.6 mm^3
